Legend:
[1] = molecular target: T1, recombinant human TRPV1 (hTRPV1) (Homo sapiens, UniProt Q8NER1); set-up: expressed in transfected cells; method as in PMID 23932918, PMID 30496739; conditions: previously reported; cited from earlier work
[2] = molecular target: T1, recombinant human TRPV1 (hTRPV1); test: TRPV1 channel assay: intracellular Ca2+ elevation (Fluo-4) in HEK-293 cells overexpressing hTRPV1; format: cell-based; set-up: expressed in transfected cells; host or cells: HEK-293 cells, stably transfected, selected with Geneticin

T1 sequence (Q8NER1 whole entry): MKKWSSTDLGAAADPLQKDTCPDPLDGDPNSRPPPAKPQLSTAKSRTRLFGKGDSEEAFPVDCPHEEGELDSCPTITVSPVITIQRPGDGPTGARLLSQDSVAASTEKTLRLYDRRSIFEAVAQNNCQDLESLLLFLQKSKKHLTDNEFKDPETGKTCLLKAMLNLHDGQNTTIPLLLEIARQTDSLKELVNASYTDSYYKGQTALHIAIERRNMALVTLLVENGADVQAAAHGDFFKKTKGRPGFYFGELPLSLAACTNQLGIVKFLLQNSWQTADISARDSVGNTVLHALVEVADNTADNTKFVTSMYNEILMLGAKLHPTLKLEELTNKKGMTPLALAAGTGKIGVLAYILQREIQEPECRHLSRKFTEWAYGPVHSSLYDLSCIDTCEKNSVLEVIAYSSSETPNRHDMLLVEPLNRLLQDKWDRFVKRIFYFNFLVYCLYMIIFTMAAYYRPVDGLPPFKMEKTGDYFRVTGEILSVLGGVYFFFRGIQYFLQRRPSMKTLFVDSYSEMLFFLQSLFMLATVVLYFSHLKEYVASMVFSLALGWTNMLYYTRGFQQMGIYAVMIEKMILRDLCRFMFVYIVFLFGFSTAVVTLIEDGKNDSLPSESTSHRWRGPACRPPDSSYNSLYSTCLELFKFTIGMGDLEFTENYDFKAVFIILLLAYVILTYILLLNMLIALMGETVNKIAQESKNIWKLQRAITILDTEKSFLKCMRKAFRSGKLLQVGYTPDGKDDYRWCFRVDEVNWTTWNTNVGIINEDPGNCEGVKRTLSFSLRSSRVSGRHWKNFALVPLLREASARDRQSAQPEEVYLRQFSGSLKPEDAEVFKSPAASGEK

inhibition at 25 µM ([2]; HEK293, read-out: inhibition of the capsaicin response) [%] | efficacy (relative to ionomycin 4 μM) ([2]; HEK-293 cells stably transfected with hTRPV1, [Ca2+]i increase normalized to the response to ionomycin 4 μM) | EC50 ([2]; HEK-293 cells stably transfected with hTRPV1, half-maximal increase in [Ca2+]i, read-out: potency EC50) [µM] | IC50 ([2]; read-out: IC50 (capsaicin 0.1 μM), HEK-293-hTRPV1, compound added 5 min before capsaicin 100 nM, capsaicin alone = 100%) [µM] | SMILES | behaviour at TRPV1 (in words) [1]
20 ± 3 |  |  |  | CC1(C)CC[C@]2(C(=O)O)CC[C@]3(C)C(=CC[C@@H]4[C@@]5(C)CC[C@H](O)C(C)(C)[C@@H]5CC[C@]43C)[C@@H]2C1 [2a, oleanolic acid] | weak antagonists
 |  |  |  | C[C@H]1[C@H](C)CC[C@]2(C(=O)O)CC[C@]3(C)C(=CC[C@@H]4[C@@]5(C)CC[C@H](O)C(C)(C)[C@@H]5CC[C@]43C)[C@H]12 [3a, ursolic acid] | weak antagonists
 | 16 ± 1 | 5.4 ± 2.3 | 7.5 ± 0.7 | COc1cc(CNC(=O)[C@]23CC[C@@H](C)[C@H](C)[C@H]2C2=CC[C@@H]4[C@@]5(C)CC[C@H](O)C(C)(C)[C@@H]5CC[C@@]4(C)[C@]2(C)CC3)ccc1O [3b, Ursoloyl vanillamide] | 

Source: publication PMC8016363, “Discovery of a Remarkable Methyl Shift Effect in the Vanilloid Activity of Triterpene Amides” (Journal of Natural Products, 2020)
